How the values were obtained:
α7 nAChR = target: T1, α7 nAChR (Rattus norvegicus, UniProt Q05941); experiment: [3H]-epibatidine radioligand competition binding assay; settings: competition against [3H]-epibatidine
T1 construct: expressed in transfected cells
Protocol: (§1) Stably transfected cell lines, tissue culture conditions, membrane preparation procedures and binding assays were described previously. Briefly, cultured cells at >80% confluence were removed from their flasks (80 cm^2) with a disposable cell scraper and placed in 10 mL of 50 mM Tris.HCl buffer (pH 7.4, 4° C.). The cell suspension was centrifuged at 10,000×g for 5 min and the pellet was collected. The cell pellet was then homogenized in 10 mL buffer with a polytron homogenizer and centrifuged at 36,000 g for 10 min at 4° C. The membrane pellet was resuspended in fresh buffer, and aliquots of the membrane preparation were used for binding assays. The concentration of [^3H]-epibatidine used was ˜500 pM for competition binding assays. […] Bound and free ligands were separated by vacuum filtration through Whatman GF/C filters treated with 0.5% polyethylenimine. The filter-retained radioactivity was measured by liquid scintillation counting. Specific binding was defined as the difference between total binding and nonspecific binding. Data from competition binding assays were analyzed using Prism 5 (GraphPad Software, San Diego, Calif.).
(§2) The in vitro binding affinities of the new ligands were measured for defined receptor subtypes (α2β2, α2β4, α3β2, α3β4, α4β2, α4β4, α6β2, α6β4, and α7) expressed in stably transfected cell lines. [^3H]Epibatidine ([^3H]EB) binds to the agonist recognition site of all of the defined receptor subtypes with high affinities. Rat forebrain homogenates were included to allow comparison between the heterologous and native α4β2 and α7 nAChRs. See FIG. 18 for binding affinity values (Ki) of the ligands at the three major nAChR subtypes (α3β4, […], and α7).
(§3) The binding affinities of all compounds synthesized for the receptor subtypes were examined in binding competition studies against [^3H]-epibatidine.

α4β2 nAChR = target: T2, α4β2 nAChR (Rattus norvegicus, UniProt P09483+P12390); experiment: as above; settings: competition against [3H]-epibatidine, stably transfected cell membranes; read-out: Ki α4β2
T2 construct: expressed in transfected cells
Protocol: as §1, §2, §3

α3β4 nAChR = target: T3, α3β4 nAChR (Rattus norvegicus, UniProt P04757+P12392); experiment: as above; settings: competition against [3H]-epibatidine, stably transfected cell membranes; read-out: Ki α3β4
T3 construct: expressed in transfected cells; host or cells: HEK 293 (KXα3β4R2)
Protocol: as §1, §2, §3

locomotor activity = experiment: Locomotor activity in figure-8 maze; assay type: in vivo, rat; settings: 1-hour session
Protocol: The studies were conducted in accordance with the regulations outlined by the Duke University Animal Care and Use Committee. The rats housed in approved standard laboratory conditions in a Duke University vivarium facility near the testing room to minimize stress induced by transporting the rats. The rats were kept on a 12:12 reverse day/night cycle, so that they were in their active phase during behavioral testing. The rats in the drug iv self-administration studies were singly housed to prevent them from damaging each other's catheters. The rats in the locomotor activity studies were housed in groups of 2-3. All rats were allowed access to water at all times; the rats in the nicotine-self-administration study were fed daily approximately 30 minutes after completing the sessions while those in the locomotor activity study had continuous access to food.
VMY-2-95 was injected s.c. 10 minutes before testing in a volume of 1 mL/kg of saline. The doses (0, 0.3, 1 and 3 mg/kg) were given in a counterbalanced order with at least two days between successive injections.
Another set of rats (N=12) was tested for acute VMY-2-95 effects on locomotor activity in a figure-8 maze over the course of a 1-hour session (see FIG. 10). […] Numbers of photobeam breaks were recorded for five minutes blocks over the one-hour session. […]

## C(#Cc1cncc(OC[C@@H]2CCN2)c1)c1ccccc1 [VMY-2-95, (S)-3-(azetidin-2-ylmethoxy)-5-(phenylethynyl)pyridine]
α7 nAChR
  Ki: 580 nM
α4β2 nAChR
  Ki: 0.049 nM
α3β4 nAChR
  Ki: 650 nM
Locomotor activity; s.c.
  dose at peak of increased locomotor activity: 1 mg/kg
Locomotor activity; three doses tested (0.3, 1, 3 mg/kg s.c.)
  locomotor activity: significantly increased

Source: patent US9994548B2, “Phenyl-substituted nicotinic ligands, and methods of use thereof” (Georgetown University, priority 2011, dated 2018)
